According to PubChem BioAssay AID330 (DTP/NCI, 2004):
Values joined by “and” are separate entries in the source; they are usually repeats but may differ in a detail not shown here. Equal entries are not always repeated. Inconclusive results and toxic doses are left out.

Tested on: P388 leukemia ip, CD2F1 mice, survival T/C
Assay: NCI In Vivo Anticancer Drug Screen. Data for tumor model P388 Leukemia (intraperitoneal) in CD2F1 (CDF1) mice
Conditions: endpoint: median survival time, higher = longer survival
In short: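 Mice carrying the transplanted tumor received test compound or vehicle. Survival was recorded in each group, and the value is the treated-group measurement divided by that of the vehicle-treated control group.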

[1] = dose: 200.0 mg/kg/injection, schedule: Q01DX009 (ip), vehicle: saline
[2] = dose: 50.0 mg/kg/injection, schedule: Q01DX005 (ip), vehicle: Klucel (hydroxypropylcellulose) (HPC)
[3] = dose: 100.0 mg/kg/injection, schedule: Q01DX005 (ip), vehicle: Klucel (hydroxypropylcellulose) (HPC)
[4] = dose: 200.0 mg/kg/injection, schedule: Q01DX005 (ip), vehicle: Klucel (hydroxypropylcellulose) (HPC)
[5] = dose: 100.0 mg/kg/injection, schedule: Q04DX003 (ip), vehicle: saline with Tween-80
[6] = dose: 200.0 mg/kg/injection, schedule: Q04DX003 (ip), vehicle: saline with Tween-80
[7] = dose: 6.25 mg/kg/injection, schedule: Q01DX009 (ip), vehicle: saline with Tween-80
[8] = dose: 12.5 mg/kg/injection, schedule: Q01DX009 (ip), vehicle: saline with Tween-80
[9] = dose: 25.0 mg/kg/injection, schedule: Q01DX009 (ip), vehicle: saline with Tween-80
[10] = dose: 60.0 mg/kg/injection, schedule: Q01DX005 (ip), vehicle: saline with Tween-80
[11] = dose: 120.0 mg/kg/injection, schedule: Q01DX005 (ip), vehicle: saline with Tween-80
[12] = dose: 240.0 mg/kg/injection, schedule: Q01DX005 (ip), vehicle: saline with Tween-80
[13] = dose: 50.0 mg/kg/injection, schedule: Q01DX009 (ip), vehicle: saline with Tween-80
[14] = dose: 200.0 mg/kg/injection, schedule: Q01DX009 (ip), vehicle: saline with Tween-80

With CCCCS(=O)CC(CO)NC(=O)/C=C/c1c(C)[nH]c(=O)[nH]c1=O (configuration not stated) the T/C (dose: 0.08 mg/kg/injection, schedule: Q01DX009 (ip), vehicle: Klucel (hydroxypropylcellulose) (HPC)) was 89 % of control, the T/C (dose: 0.15 mg/kg/injection, schedule: Q01DX009 (ip), vehicle: Klucel (hydroxypropylcellulose) (HPC)) was 86 % of control and the T/C (dose: 0.3 mg/kg/injection, schedule: Q01DX009 (ip), vehicle: Klucel (hydroxypropylcellulose) (HPC)) was 103 % of control. For the same compound, the T/C (dose: 0.6 mg/kg/injection, schedule: Q01DX009 (ip), vehicle: Klucel (hydroxypropylcellulose) (HPC)) was 112 % of control, the T/C (dose: 0.6 mg/kg/injection, schedule: Q01DX009 (ip), vehicle: water) was 122 % of control and the T/C (dose: 4.8 mg/kg/injection, schedule: Q01DX009 (ip), vehicle: water) was 153 % of control. For the same compound, the T/C (dose: 5.0 mg/kg/injection, schedule: Q01DX009 (ip), vehicle: water) was 161 % of control.

With CCCCCC(CC(=O)O)C(N)C(=O)O (configuration not stated) the T/C (dose: 50.0 mg/kg/injection, schedule: Q01DX009 (ip), vehicle: Klucel (hydroxypropylcellulose) (HPC)) was 104 % of control, the T/C (dose: 100.0 mg/kg/injection, schedule: Q01DX009 (ip), vehicle: Klucel (hydroxypropylcellulose) (HPC)) was 103 % of control and the T/C (dose: 200.0 mg/kg/injection, schedule: Q01DX009 (ip), vehicle: Klucel (hydroxypropylcellulose) (HPC)) was 99 % of control.

In the case of CCOC(=O)CC1(O)Oc2cc3c(cc2C(c2cc(OC)c(OC)c(OC)c2)C1C(=O)OCC)OCO3 (configuration not stated), the T/C (dose: 60.0 mg/kg/injection, schedule: Q01DX005 (ip), vehicle: Klucel (hydroxypropylcellulose) (HPC)) is reported as 87 % of control, the T/C (dose: 120.0 mg/kg/injection, schedule: Q01DX005 (ip), vehicle: Klucel (hydroxypropylcellulose) (HPC)) is reported as 89 % of control and the T/C (dose: 240.0 mg/kg/injection, schedule: Q01DX005 (ip), vehicle: Klucel (hydroxypropylcellulose) (HPC)) is reported as 88 % of control.

For CCC1CCCN(CCc2c(C3(CO)CCC(CO)c4c(CCN5CCCC(CC)C5)c5ccccc5n43)[nH]c3ccccc23)C1 (configuration not stated), the T/C (dose: 0.7 mg/kg/injection, schedule: Q01DX009 (ip), vehicle: saline with Tween-80) was 106 % of control, the T/C (dose: 1.4 mg/kg/injection, schedule: Q01DX009 (ip), vehicle: saline with Tween-80) was 102 % of control and the T/C (dose: 2.8 mg/kg/injection, schedule: Q01DX009 (ip), vehicle: saline with Tween-80) was 102 % of control.

In the case of O=C(c1ccccc1)N(CCO)CCO, the T/C (dose: 50.0 mg/kg/injection, schedule: Q01DX009 (ip), vehicle: saline) is reported as 108 % of control, the T/C (dose: 100.0 mg/kg/injection, schedule: Q01DX009 (ip), vehicle: saline) is reported as 94 % of control and the T/C [1] is reported as 101 % of control.

With C=CCN1C(SC)=NC(=O)C1(c1ccccc1)c1ccccc1 the T/C [2] was 100 % of control, the T/C [3] was 104 % of control and the T/C [4] was 102 % of control.

In the case of CN1CCC(=NO)CC1, the T/C (dose: 60.0 mg/kg/injection, schedule: Q01DX005 (ip), vehicle: saline) is reported as 95 % of control, the T/C (dose: 120.0 mg/kg/injection, schedule: Q01DX005 (ip), vehicle: saline) is reported as 89 % of control and the T/C (dose: 240.0 mg/kg/injection, schedule: Q01DX005 (ip), vehicle: saline) is reported as 94 % of control.

CCOC(=O)c1cc2c(nc1C)-c1ccccc1OC2Nc1ccccc1 (configuration not stated) was tested, and the T/C (dose: 3.12 mg/kg/injection, schedule: Q01DX005 (ip), vehicle: saline with Tween-80) was 98 % of control, the T/C (dose: 6.25 mg/kg/injection, schedule: Q01DX005 (ip), vehicle: saline with Tween-80) was 96 % of control and the T/C (dose: 12.5 mg/kg/injection, schedule: Q01DX005 (ip), vehicle: saline with Tween-80) was 96 % of control. For the same compound, the T/C (dose: 50.0 mg/kg/injection, schedule: Q01DX005 (ip), vehicle: saline with Tween-80) was 88 % of control and the T/C (dose: 100.0 mg/kg/injection, schedule: Q01DX001 (ip), vehicle: saline with Tween-80) was 89 % of control.

c1ccc(C2CC(c3ccc(C4=NN(c5ccccc5)C(c5ccccc5)C4)cc3)=NN2c2ccccc2)cc1 (configuration not stated) was tested, and the T/C (dose: 25.0 mg/kg/injection, schedule: Q04DX003 (ip), vehicle: saline with Tween-80) was 102 % of control, the T/C (dose: 50.0 mg/kg/injection, schedule: Q04DX003 (ip), vehicle: saline with Tween-80) was 91 % of control and the T/C [5] was 87 % of control. For the same compound, the T/C [6] was 89 % of control and the T/C (dose: 400.0 mg/kg/injection, schedule: Q04DX003 (ip), vehicle: saline with Tween-80) was 100 % of control.

With CCOC(=O)C(=CN(C)c1ccc(Cl)cc1)C(=O)OCC the T/C [7] was 102 % of control, the T/C [8] was 94 % of control and the T/C [9] was 103 % of control. For the same compound, the T/C [1] was 97 % of control.

O=C(OC(Cc1ccccc1)C(=O)O)c1ccc([N+](=O)[O-])cc1 (configuration not stated) was tested, and the T/C (dose: 50.0 mg/kg/injection, schedule: Q01DX001 (ip), vehicle: Klucel (hydroxypropylcellulose) (HPC)) was 97 % of control, the T/C (dose: 100.0 mg/kg/injection, schedule: Q01DX001 (ip), vehicle: Klucel (hydroxypropylcellulose) (HPC)) was 111 % of control and the T/C (dose: 200.0 mg/kg/injection, schedule: Q01DX001 (ip), vehicle: Klucel (hydroxypropylcellulose) (HPC)) was 109 % of control.

S=C=NCCCCCCCCCCCCN=C=S was tested, and the T/C (dose: 3.12 mg/kg/injection, schedule: Q01DX009 (ip), vehicle: saline with Tween-80) was 112 % of control and 115 % of control and the T/C [7] was 106 % of control and 120 % of control.

CC(C)(Br)C(=O)/C=C/c1ccc(Cl)cc1 was tested, and the T/C [10] was 108 % of control, the T/C [11] was 104 % of control and the T/C [12] was 114 % of control.

In the case of CC(C)[NH-].CC(C)[NH-].O.O.[Cl][Pt+2][Cl], the T/C (dose: 8.0 mg/kg/injection, schedule: Q01DX009 (ip), vehicle: saline with Tween-80) is reported as 167 % of control, the T/C [8] is reported as 184 % of control and the T/C (dose: 18.0 mg/kg/injection, schedule: Q01DX009 (ip), vehicle: saline with Tween-80) is reported as 202 % of control.

For CC1(C)N=C(N)N=C(N)N1c1ccc(OCCOc2ccc(S(=O)(=O)F)cc2)c(Cl)c1, the T/C (dose: 12.5 mg/kg/injection, schedule: Q04DX003 (ip), vehicle: saline) was 159 % of control, the T/C (dose: 25.0 mg/kg/injection, schedule: Q04DX003 (ip), vehicle: saline) was 181 % of control and 185 % of control and the T/C (dose: 50.0 mg/kg/injection, schedule: Q04DX003 (ip), vehicle: saline) was 181 % of control and 185 % of control. For the same compound, the T/C [5] was 175 % of control, the T/C (dose: 100.0 mg/kg/injection, schedule: Q04DX003 (ip), vehicle: saline) was 190 % of control and 200 % of control and the T/C (dose: 132.0 mg/kg/injection, schedule: Q04DX003 (ip), vehicle: saline with Tween-80) was 162 % of control. The T/C [6] was 185 % of control and the T/C (dose: 200.0 mg/kg/injection, schedule: Q04DX003 (ip), vehicle: saline) was 109 % of control.

In the case of O=C(Nc1cccc2cccnc12)C1=C(Nc2cccc3cccnc23)CCC1, the T/C [7] is reported as 107 % of control, the T/C [8] is reported as 100 % of control and the T/C [9] is reported as 98 % of control. For the same compound, the T/C [13] was 92 % of control and the T/C [14] was 98 % of control.

With CCCCCCCOc1cccc(OCCCC[N+]2(CC)CCCCC2)c1 the T/C (dose: 1.56 mg/kg/injection, schedule: Q01DX009 (ip), vehicle: saline) was 97 % of control, the T/C (dose: 3.12 mg/kg/injection, schedule: Q01DX009 (ip), vehicle: saline) was 100 % of control and the T/C (dose: 6.25 mg/kg/injection, schedule: Q01DX009 (ip), vehicle: saline) was 100 % of control.

In the case of Cc1cc(C(F)(F)F)nc(NNc2nc(C)cc(C(F)(F)F)n2)n1, the T/C [13] is reported as 102 % of control, the T/C (dose: 100.0 mg/kg/injection, schedule: Q01DX009 (ip), vehicle: saline with Tween-80) is reported as 88 % of control and the T/C [14] is reported as 88 % of control.

With CCCCC(NC(=O)C(Cl)Cl)C(=O)O (configuration not stated) the T/C [2] was 94 % of control, the T/C [3] was 98 % of control and the T/C [4] was 88 % of control.

In the case of Cc1cc2c(cc1C)NC1=C(N2)OC(c2c[nH]c3ccc(COc4ccccc4)cc23)C1=O (configuration not stated), the T/C [10] is reported as 92 % of control, the T/C [11] is reported as 90 % of control and the T/C [12] is reported as 92 % of control.

For C(=C\c1ccc2c(c1)OCO2)/c1ccncc1, the T/C (dose: 25.0 mg/kg/injection, schedule: Q01DX005 (ip), vehicle: Klucel (hydroxypropylcellulose) (HPC)) was 102 % of control, the T/C [2] was 94 % of control and 102 % of control and the T/C [3] was 95 % of control and 101 % of control. The T/C [4] was 100 % of control and 90 % of control.

With CC(=O)OC1CC2CCC3C(CCC4(C)C3CC([N+]3(C)CCCCC3)C4OC(C)=O)C2(C)CC1[N+]1(C)CCCCC1 (configuration not stated) the T/C (dose: 12.5 micrograms/kg/injection, schedule: Q01DX009 (ip), vehicle: saline) was 103 % of control, the T/C (dose: 25.0 micrograms/kg/injection, schedule: Q01DX009 (ip), vehicle: saline) was 100 % of control and the T/C (dose: 50.0 micrograms/kg/injection, schedule: Q01DX009 (ip), vehicle: saline) was 103 % of control.
